Test results: ChEMBL document CHEMBL3603785, “Discovery and Optimization of 4-(8-(3-Fluorophenyl)-1,7-naphthyridin-6-yl)transcyclohexanecarboxylic Acid, an Improved PDE4 Inhibitor for the Treatment of Chronic Obstructive Pulmonary Disease (COPD)” (J Med Chem, 2015)
In brackets after ≈: the same amount, converted by molar mass.

How the values were obtained:
[1] = Thermodynamic aqueous solubility of the compound at pH 6.8; assay type: physicochemical; details: for solubility thermodynamic: aqueous, read-out: Therm_solubility; for Therm_solubility: buffer
[2] = High throughput kinetic solubility of the compound at pH 6.8; assay type: physicochemical; details: buffer, read-out: Kinetic_solubility
Rattus norvegicus [3] = assay: AUC in rat at 4.2 uM/kg, po; assay type: ADME, organism-based; details: in vivo
Rattus norvegicus [4] = assay: Oral bioavailability in rat at 2.1 uM/kg; assay type: ADME, organism-based; details: in vivo
Rattus norvegicus [5] = assay: AUC in rat at 2.1 uM/kg, po; assay type: ADME, organism-based; details: in vivo
[6] = molecular target: 3',5'-cyclic-AMP phosphodiesterase 4D (Homo sapiens, UniProt Q08499); assay: Inhibition of human PDE4D
Chain of 3',5'-cyclic-AMP phosphodiesterase 4D (Q08499 whole entry): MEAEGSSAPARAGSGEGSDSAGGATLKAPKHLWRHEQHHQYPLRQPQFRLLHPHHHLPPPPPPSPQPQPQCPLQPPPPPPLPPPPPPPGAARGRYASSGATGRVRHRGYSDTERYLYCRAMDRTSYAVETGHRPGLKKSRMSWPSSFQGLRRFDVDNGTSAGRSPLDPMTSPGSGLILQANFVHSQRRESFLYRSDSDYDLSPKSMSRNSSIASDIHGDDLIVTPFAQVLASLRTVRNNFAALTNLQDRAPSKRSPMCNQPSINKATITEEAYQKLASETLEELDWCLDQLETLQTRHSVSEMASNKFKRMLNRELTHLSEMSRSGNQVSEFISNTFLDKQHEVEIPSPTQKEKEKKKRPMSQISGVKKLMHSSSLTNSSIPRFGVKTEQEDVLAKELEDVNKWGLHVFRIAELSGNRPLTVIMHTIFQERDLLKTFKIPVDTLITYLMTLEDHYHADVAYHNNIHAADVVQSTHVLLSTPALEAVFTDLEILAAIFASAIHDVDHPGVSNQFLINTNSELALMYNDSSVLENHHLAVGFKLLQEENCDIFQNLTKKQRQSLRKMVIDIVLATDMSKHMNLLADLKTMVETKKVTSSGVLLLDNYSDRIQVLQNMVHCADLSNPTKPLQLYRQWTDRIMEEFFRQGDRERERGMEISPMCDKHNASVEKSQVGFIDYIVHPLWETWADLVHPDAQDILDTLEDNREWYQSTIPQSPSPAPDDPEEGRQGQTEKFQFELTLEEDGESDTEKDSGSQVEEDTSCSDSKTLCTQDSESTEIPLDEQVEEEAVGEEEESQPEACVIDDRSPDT

Rattus norvegicus [7] = assay: Volume of distribution at steady state in rat at 1.05 uM/kg, iv; assay type: ADME, organism-based; details: in vivo
Rattus norvegicus [8] = assay: Half life in rat at 1.05 uM/kg, iv; assay type: ADME, organism-based; details: in vivo
Rattus norvegicus [9] = assay: AUC in po dosed rat; assay type: ADME, organism-based; details: in vivo
Rattus norvegicus [10] = assay: Half life in po dosed rat; assay type: ADME, organism-based; details: in vivo

Row | solubility thermodynamic [1] [mg/mL] | solubility kinetic [2] [mg/mL] | IC50 [6] [µM] | SMILES | also measured
1 | > 0.004 | > 0.07 | – | O=C(O)C1CCN(c2cc3cccnc3c(-c3cccc(F)c3)n2)CC1 | AUC (Rattus norvegicus [3]): 3919 µM/min
2 | > 0.004 | 0.02 (≈ 55.8 µM) | – | N#Cc1cccc(-c2nc(N3CCC(C(=O)O)CC3)cc3cccnc23)c1 | F (Rattus norvegicus [4]): 157.5%; AUC (Rattus norvegicus [5]): 2768 µM/min
3 | – | 0.02 (≈ 55.2 µM) | – | COc1cccc(-c2nc([C@H]3CC[C@H](C(=O)O)CC3)cc3cccnc23)c1 | Therm_solubility [1]: 0.00015 mg/mL
4 | – | 0.01 (≈ 28.5 µM) | – | O=C(O)[C@H]1CC[C@H](c2cc3cccnc3c(-c3cccc(F)c3)n2)CC1 | Therm_solubility [1]: 0.00092 mg/mL; AUC (Rattus norvegicus [5]): 4408 µM/min
5 | – | 0.02 (≈ 56 µM) | – | N#Cc1cccc(-c2nc([C@H]3CC[C@H](C(=O)O)CC3)cc3cccnc23)c1 | Therm_solubility [1]: 0.00043 mg/mL; AUC (Rattus norvegicus [3]): 112900 µM/min
6 | 0.00014 (≈ 0.382 µM) | 0.1 (≈ 273 µM) | 0.03 | O=C(O)[C@H]1CC[C@H](c2cc3cccnc3c(-c3cccc(Cl)c3)n2)CC1 | –
7 | – | – | 0.008 | N#Cc1cccc(-c2nc(N3CCC(C(N)=O)CC3)cc3cccnc23)c1 | Vdss (Rattus norvegicus [7]): 2.9 L/kg; t1/2 (Rattus norvegicus [8]): 8 min
8 | – | – | 0.013 | N#Cc1cccc(-c2nc(N3CCC(CO)CC3)cc3cccnc23)c1 | –
9 | – | – | 0.022 | N#Cc1cccc(-c2nc(N3CCC(O)CC3)cc3cccnc23)c1 | –
10 | – | – | 0.003 | N#Cc1cccc(-c2nc(N3CCOCC3)cc3cccnc23)c1 | –
11 | 0.0023 (≈ 6.24 µM) | – | – | O=C(O)c1ccc(-c2cc3cccnc3c(-c3ccc4nonc4c3)n2)cc1 | AUC (Rattus norvegicus [9]): 523 µM/min; t1/2 (Rattus norvegicus [10]): 12 min
